Source: publication doi:10.1101/2021.10.01.462758v2 (biorxiv, 2021)
Read-outs that look alike come from different tables or passages of the source.

Key:
[1] = biological target: T1, D2R; D2Long receptor fused to C-terminal RLuc (BRET assay) (Homo sapiens, UniProt P14416); experiment: cell-based; design: species or system HEK293T; conditions: for Emax: HEK-293T, read-out: β-arrestin Emax (%), D2R
[2] = biological target: T2, D1R; D1 receptor fused to C-terminal RLuc (BRET assay) (Homo sapiens, UniProt P21728); experiment: cell-based; design: species or system HEK293T; conditions: HEK-293T, read-out: β-arrestin Emax (%), D1R
T2 sequence (P21728 whole entry, the tested form may be a part): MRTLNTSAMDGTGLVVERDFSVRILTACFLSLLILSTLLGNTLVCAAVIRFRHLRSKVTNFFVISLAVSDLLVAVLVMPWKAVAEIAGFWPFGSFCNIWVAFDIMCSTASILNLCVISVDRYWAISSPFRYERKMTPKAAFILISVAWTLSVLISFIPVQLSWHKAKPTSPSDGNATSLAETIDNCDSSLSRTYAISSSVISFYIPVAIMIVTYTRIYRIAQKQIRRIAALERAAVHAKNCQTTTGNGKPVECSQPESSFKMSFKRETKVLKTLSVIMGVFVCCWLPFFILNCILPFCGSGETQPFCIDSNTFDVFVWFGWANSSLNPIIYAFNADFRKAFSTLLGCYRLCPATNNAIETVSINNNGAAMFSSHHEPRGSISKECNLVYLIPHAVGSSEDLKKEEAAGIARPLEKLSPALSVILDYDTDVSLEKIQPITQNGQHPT

[3] = biological target: T2, D1R; D1 receptor fused to C-terminal RLuc (BRET assay); experiment: BRET beta-arrestin2 recruitment, HEK293T; type: cell-based
[4] = biological target: T1, D2R; D2Long receptor fused to C-terminal RLuc (BRET assay); experiment: BRET beta-arrestin2 recruitment, HEK293T; type: cell-based
[5] = biological target: T2, D1R; D1 receptor fused to C-terminal RLuc (BRET assay); experiment: cell-based; design: species or system HEK293T; conditions: HEK-293T, read-out: β-arrestin Emax (%), D1R; remark: listed apart in the source
[6] = biological target: T1, D2R; D2Long receptor fused to C-terminal RLuc (BRET assay); experiment: cell-based; design: species or system HEK293T; conditions: HEK-293T, read-out: β-arrestin Emax (%), D2R
[7] = biological target: T1, D2R; D2Long receptor fused to C-terminal RLuc (BRET assay); experiment: cell-based; design: species or system HEK293T
[8] = biological target: T1, D2R; D2Long receptor fused to C-terminal RLuc (BRET assay); experiment: cell-based; design: species or system HEK293T; remark: listed apart in the source
[9] = biological target: T2, D1R; D1 receptor fused to C-terminal RLuc (BRET assay); experiment: cell-based; design: species or system HEK293T; conditions: HEK-293T, read-out: β-arrestin Emax (%), D1R; remark: listed apart in the source
[10] = biological target: T1, D2R; D2Long receptor fused to C-terminal RLuc (BRET assay); experiment: cell-based; design: species or system HEK293T; conditions: HEK-293T, read-out: β-arrestin Emax (%), D2R; remark: listed apart in the source
[11] = biological target: T1, D2R; D2Long receptor fused to C-terminal RLuc (BRET assay); experiment: cell-based; design: species or system HEK293T; remark: listed apart in the source
[12] = biological target: T1, D2R; D2Long receptor fused to C-terminal RLuc (BRET assay); conditions: agonist
[13] = biological target: T2, D1R; D1 receptor fused to C-terminal RLuc (BRET assay); experiment: cell-based; design: species or system HEK293T; conditions: HEK-293T, read-out: β-arrestin Emax (%), D1R; remark: listed apart in the source

T1 sequence (P14416 whole entry, the tested form may be a part): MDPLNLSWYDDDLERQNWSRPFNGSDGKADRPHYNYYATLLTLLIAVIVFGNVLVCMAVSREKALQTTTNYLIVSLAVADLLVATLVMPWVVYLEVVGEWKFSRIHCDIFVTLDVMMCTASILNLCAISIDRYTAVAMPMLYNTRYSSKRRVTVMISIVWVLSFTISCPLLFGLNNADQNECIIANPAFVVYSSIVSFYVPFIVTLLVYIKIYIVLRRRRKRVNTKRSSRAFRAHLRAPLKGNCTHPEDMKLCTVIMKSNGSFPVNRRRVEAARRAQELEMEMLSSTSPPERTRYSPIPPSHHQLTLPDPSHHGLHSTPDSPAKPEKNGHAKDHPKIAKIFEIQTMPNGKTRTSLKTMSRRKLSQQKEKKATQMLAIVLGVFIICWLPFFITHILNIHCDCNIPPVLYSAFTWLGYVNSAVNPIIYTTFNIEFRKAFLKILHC

Row | SMILES | Emax [1] | EC50 [3] | EC50 [4] | also measured
1 | Oc1cc2c(cc1O)[C@H]1c3cc(Br)sc3CN[C@@H]1CC2 (racemic) [1b] | 60.3 ± 2.27% |  |  | Emax [2]: 138 ± 8.41%
2 | Oc1cc2c(cc1O)[C@H](c1cccs1)[C@@H](NCc1ccccc1)CC2 (racemic) [1l] | 8.62 ± 3.15% |  |  | 
3 | N[C@H]1CCc2cc(O)c(O)cc2[C@@H]1c1cccs1 (racemic) [1m] | 27 ± 1.8% |  |  | Emax [2]: 3.7 ± 1.67%
4 | CN1Cc2sccc2[C@@H]2c3cc(O)c(O)cc3CC[C@H]21 (relative stereo) [1j] | 73.4 ± 17.8% | > 10 µM | 7.48 µM | 
5 | Oc1cc2c(cc1O)[C@H]1c3cc(Br)sc3CN[C@@H]1CC2 [1c] | 70.3 ± 3.41% |  |  | Emax [2]: 137 ± 9.35%
6 | Oc1cc2c(cc1O)[C@@H]1c3cc(Br)sc3CN[C@H]1CC2 [1d] | 50.6 ± 4.02% | 2.63 µM | 5.62 µM | Emax [2]: 52.8 ± 9.7%
7 | Oc1cc2c(cc1O)[C@H]1c3cc(-c4cccc(C(F)(F)F)c4)sc3CN[C@@H]1CC2 [1h] | 73 ± 4.69% | > 10 µM | 4.84 µM | 
8 | Oc1cc2c(cc1O)[C@@H]1c3cc(-c4cccc(C(F)(F)F)c4)sc3CN[C@H]1CC2 [1i] |  | > 10 µM | > 10 µM | 
9 | Cc1cc(-c2cccc(O)c2O)cs1 [2a] |  | 6.9 µM |  | Emax [5]: 30.3 ± 5.6%; Emax [6]: 13.9 ± 3.68%
10 | Oc1cccc(-c2cccc(C(F)(F)F)c2)c1O [2b] |  | 0.0052 µM |  | Emax [5]: 6.13 ± 3.11%; EC50 [7]: > 10 µM
11 | N#Cc1ccc(-c2cccc(O)c2O)cc1 [2c] |  | > 10 µM |  | EC50 [7]: 0.0317 µM; Emax [6]: 1.61 ± 1.27%
12 | Oc1cccc(-c2cccnc2)c1O [2d] |  | 0.053 µM |  | EC50 [8]: > 100 µM; Emax [5]: 2.6 ± 1.8%
13 | N#Cc1cccc(-c2cccc(O)c2O)c1 [2e] |  | > 10 µM |  | EC50 [8]: > 100 µM
14 | NS(=O)(=O)c1ccc(-c2cccc(O)c2O)cc1 [2f] |  | 0.0514 µM |  | EC50 [8]: > 100 µM; Emax [5]: 4.6 ± 1.5%
15 | Nc1cccc(-c2cccc(O)c2O)c1 [2g] |  | 0.00733 µM |  | EC50 [8]: > 100 µM; Emax [5]: 4 ± 1.6%
16 | Oc1cccc(-c2cncc3ccccc23)c1O [2h] |  | 0.689 µM |  | EC50 [8]: > 100 µM; Emax [5]: 8.1 ± 2.1%
17 | Oc1cccc(-c2cnc3ccccc3c2)c1O [2i] |  | > 10 µM |  | EC50 [8]: > 100 µM
18 | OCCc1ccc(O)c(O)c1 [3a] |  | 0.229 µM | 5.26 µM | Emax [9]: 11.5 ± 3.05%; Emax [10]: 9.98 ± 2.96%
19 | OCCCc1ccc(O)c(O)c1 [3b] |  | 0.534 µM |  | Emax [9]: 3.5 ± 1.9%; EC50 [11]: > 10 µM
20 | CCCc1cc2c(s1)CN[C@H]1CCc3cc(O)c(O)cc3[C@H]21 [(+)-A-86929] | 38 ± 4.45% | 2.8 µM | 2.07 µM | Emax [2]: 94.1 ± 6.55%
21 | CCCc1cc2c(s1)CN[C@@H]1CCc3cc(O)c(O)cc3[C@@H]21 [(-)-A-86929] | 79.7 ± 3.83% | 0.607 µM | 0.27 µM | Emax [2]: 95.5 ± 6.88%
22 | CCCc1cc2c(s1)CN[C@@H]1CCc3cc(OC(C)=O)c(OC(C)=O)cc3[C@@H]21 [ABT-431] | 23 ± 2.15% | 3.2 µM | 3 µM | Emax [2]: 88.2 ± 3.06%
23 | NCCc1ccc(O)c(O)c1 [DA] |  |  |  | β-arrestin Emax (%), D2R ([1]; beta-arrestin2 recruitment, % of dopamine, agonist): 90.29±3.23%; D2R beta-arrestin Emax (%) [12]: 90.29±3.23%
24 | COc1cccc(-c2ccc(O)c(O)c2)c1 [Z4642446630] |  |  |  | EC50 ([3]; agonist mode, beta-arrestin2 pathway, pH […]): 5.48 µM; Emax [13]: 17.1 ± 5.3%
